Measurements: patent US20260224544A1, “Intranasal Formulations for Treating Obstructive Sleep Apnea” (Mosanna Therapeutics AG, priority 2023, published 2026)
Entries after “also recorded” stand apart in the source; their conditions may differ. One block for each compound: values may come before it.

Key:
[1] = Compound 1 drug substance stability (ICH storage conditions); type: physicochemical; settings: long term conditions 25±2° C./60±5%, data not shown
Protocol: A stability study for compound 1 batch H (non-micronized, GMP) was initiated as per ICH storage conditions described in Table 36.
Results for 1 month of storage at 25±2° C./60±5% RH, 30±2° C./65±5% RH and at 40±2° C./75±5% RH are available to date.
A stability study for compound 1 batch L and M (micronized to d90<10 μm and d90<35 μm respectively, scheduled GMP sublots of compound 1 batch H) will be initiated as per ICH reference storage conditions described in Table 37 and Table 38.
To date, only limited data are available on compound 1 drug substance both non-micronized and micronized.

[2] = Compound 1 drug substance batch analysis (particle size distribution); type: physicochemical
Description: The following compound 1 batches were manufactured (Table 31).

[3] = tested on: male patients with Obstructive Sleep Apnea-Hypopnea Syndrome (OSAHS); assay: Phase 2 clinical trial: treatment emergent adverse events (TEAE); type: in vivo, human; settings: single intranasal dose 18 mg, n = 38
Protocol: (§1) This was a single intranasal dose, multi-center, randomized, placebo-controlled, double-blind, 2-way crossover study with two treatment periods in male patients with Obstructive Sleep Apnea-Hypopnea Syndrome (OSAHS).
(§2) After a screening phase of up to 21 days, the patients received single doses of 18 mg of compound 1 administered as 3 actuations of 100 μL of study drug into each nostril (9 mg/nostril) or matching placebo at bedtime in each study period. The single nasal doses were administered in a sitting position. There was a wash-out period of 2 days to 3 weeks between the two study periods. The duration of the study per patient ranged from 13 days to a maximum of 8 weeks.
The Safety population was defined as all randomized patients exposed to the study medication, regardless of the amount of treatment administered. Patients were analyzed using the treatment they actually received at each period.

[4] = tested on: male patients with Obstructive Sleep Apnea-Hypopnea Syndrome (OSAHS); assay: Phase 2 clinical trial: change from baseline in Apnea Hypopnea Index (AHI) by overnight polysomnography; type: in vivo, human; settings: single intranasal dose 18 mg
Protocol: as §1, §2
Efficacy was assessed in a blinded fashion using overnight polysomnographic recordings (PSG) which were centrally read and interpreted. The central readers were blinded with regard to the treatment sequence the patients received and with regard to potential safety findings. Maintenance of Wakefulness Tests (MWT) and Stanford Sleepiness Scores (SSS) were also used for the assessment of Excessive Daytime Sleepiness (EDS), and plasma concentrations of compound 1 were assessed at baseline and approximately 10 hours after study drug administration (data not shown). […]
Patients were analyzed using the treatment they actually received at each period, irrespective of the treatment sequence they were randomized to. […]

[5] = tested on: upper airway collapsibility; settings: anesthetized pigs, administered topically to the upper airway; Wirth et al. 2013; cited from earlier work

time for which stability was demonstrated ([1]; micronized, 2004 lot): up to 12 months
Compound: COc1ccc(CC(=O)NCc2ccccc2-c2ccccc2C(=O)NCCc2cccnc2)cc1 [listing 1 of 2 here]

Particle size distribution d10 ([2]; micronized drug substance): d10 0.80 μm
Particle size distribution d50 ([2]; micronized drug substance): d50 2.3 μm
Particle size distribution d90 ([2]; micronized drug substance): d90 5.9 μm
Compound: COc1ccc(CC(=O)NCc2ccccc2-c2ccccc2C(=O)NCCc2cccnc2)cc1 [Cmpd 1 batch L]

time for which stability was demonstrated ([1]; lots manufactured in 2004): up to 36 months
Compound: COc1ccc(CC(=O)NCc2ccccc2-c2ccccc2C(=O)NCCc2cccnc2)cc1 [listing 2 of 2 here]

Particle size distribution d10 ([2]; micronized drug substance): d10 0.96 μm
Particle size distribution d50 ([2]; micronized drug substance): d50 4.14 μm
Particle size distribution d90 ([2]; micronized drug substance): d90 8.85 μm
Compound: COc1ccc(CC(=O)NCc2ccccc2-c2ccccc2C(=O)NCCc2cccnc2)cc1 [Cmpd 1 batch E]

Particle size distribution d10 ([2]; micronized drug substance): d10 1.81 μm
Particle size distribution d50 ([2]; micronized drug substance): d50 12.53 μm
Particle size distribution d90 ([2]; micronized drug substance): d90 30.01 μm
Compound: COc1ccc(CC(=O)NCc2ccccc2-c2ccccc2C(=O)NCCc2cccnc2)cc1 [Cmpd 1 batch K]

D90 of drug substance ([2]; micronized drug substance): approximately 4.9 μm
D90 of drug substance ([2]; non micronized batch sieved with a 32 μm mesh): approximately 28 μm
Compound: COc1ccc(CC(=O)NCc2ccccc2-c2ccccc2C(=O)NCCc2cccnc2)cc1 [Compound 1, 2′-{[2-(4-methoxy-phenyl)-acetylamino]-methyl}-biphenyl-2-carboxylic acid (2-pyridin-3-yl-ethyl)-amide]
All grade TEAEs: Cough, % [3]: (50.0%)
All grade TEAEs: Eye Disorders, % [3]: (57.9%)
All grade TEAEs: Increased tearing, % [3]: (52.6%)
All grade TEAEs: Nasal discomfort, % [3]: (36.8%)
All grade TEAEs: Respiratory, % [3]: (97.4%)
All grade TEAEs: Rhinorrhea, % [3]: (18.4%)
All grade TEAEs: Sneezing, % [3]: (84.2%)
All grade TEAEs: Throat irritations, % [3]: (34.2%)
AHI (num/hr) LS mean difference, compound 1 versus placebo, change from baseline ([4]; ITT population): −3.78 num/hr
primary efficacy outcome (reduction of AHI versus placebo) [4]: not statistically significant; also recorded: no significant improvement in obstructive sleep apnea
inhibition of upper airway collapsibility [5]: dose-dependently inhibit upper airway collapsibility
